According to US20180071354A1, “SELECTIVE BREEDING METHOD OF ANTITUMOR/ANTICANCER CAMELLIA SINENSIS STRAIN, AND TEA PRODUCT OF SUCH STRAIN” (FUJIAN AGRICULTURE AND FORESTRY UNIVERSITY, priority 2015, published 2018):
Blank lines part the entries; values can stand above or below the compound they belong to.

What was measured:
[1] = system: HepG2 cells (human liver cancer cells) transplanted tumor; assay: In vivo antitumor testing, first experiment (Animal Model 1); design: species or system BALB/c nude mice; conditions: 35 days, 5-fluorouracil 15.0 mg/kg per day intra-abdominal injection, Tea Product 1 0.6 mL of 10% per day intragastric gavage
Experimental: The establishment of Animal Model 1 is addressed as follows. […] SCXK (Hu) 2012-0002) were purchased from Shanghai Silaike Experiment Animal Co., Ltd and were acclimatized for one week. HepG2 cells (human liver cancer cells) mentioned in section C of Example 3 were cultivated in the corresponding complete medium (see Table 3) supplemented with 100 μg/mL penicillin and 100 μg/mL streptomycin in an incubator (37° C., 100% relative humidity, 5% CO2). When adherent cancer/tumor cells reached 97% confluence, the medium was removed. Cell detachment was conducted using trypsin, and the detached cells were transferred to a centrifuge tube. Centrifugation was conducted, and the resulting supernatant was removed. Staining was performed with a 0.4% trypan blue, and it was determined that the cell viability was higher than 97%. A cell suspension having a concentration of […] was prepared using PBS. 0.2 mL of the cell suspension was subcutaneously injected into each of the nude mice at a position posterior to the axilla. […] Tea Product 1 and Conventional Tea Product obtained in section A of Example 3, as well as 5-fluorouracil mentioned in section B of Example 3, were examined for their in vivo antitumor activity. […] In all the three experiments above, each of the nude mice was sacrificed 24 hours after the termination of the treatment. The tumor was collected and weighed. The antitumor effect of a respective test substance was evaluated by virtue of the percent tumor growth inhibition (%), which was calculated using the following Equation II: E=[(F−G)/(F)]×100% (I) • E=percent tumor growth inhibition (%) • F=tumor weight of control group • G=tumor weight of respective test substance group The experimental data are expressed as mean±SEM (standard error of the mean). The experimental data were subjected to one-way analysis of variance (ANOVA) using SPSS (Statistical Package for Social Sciences) software package version 11.5, such that the difference between the groups could be evaluated. The data regarding the tumor weights of the groups were subjected to t-test. […]

[2] = system: human glioblastoma cell line U-87MG; assay: In vitro antitumor/anticancer testing (CCK-8), U-87MG; format: cell-based; conditions: 48 h
Experimental: (§1) Each of Tea Product 1 and Conventional Tea Product obtained in section A of this example was used to prepare test tea samples according to the method described below. A proper amount of the respective tea product was added into sterile water to prepare a stock solution with a concentration of 100 mg/mL, followed by using a membrane filter with a pore size of 0.22 μm to conduct vacuum filtration and sterilization. The resulting stock solution was diluted with a respective complete medium shown in Table 3 below to form test tea samples with different concentrations. In other words, the thus obtained test tea samples to be used for treating a respective cancer/tumor cell line shown in Table 3 were prepared using the same complete medium as that for the respective cancer/tumor cell line. […] Specifically, each of the aforesaid commercially available agents was subjected to the method described below to prepare comparative test samples. A proper amount of a respective commercially available agent was dissolved in phosphate-buffered saline (PBS) to prepare a stock solution with a concentration of 5 mg/mL, followed by using a membrane filter with a pore size of 0.22 μm to conduct vacuum filtration and sterilization. The resulting stock solution was diluted with a respective complete medium shown in Table 3 below to form comparative test samples with different concentrations. To be specific, the comparative test samples prepared from the respective commercially available agent have the concentrations shown in Table 2 below. The thus obtained comparative test samples to be used for treating a respective cancer/tumor cell line shown in Table 3 were prepared using the same complete medium as that for the respective cancer/tumor cell line. […] The cultivation of each cancer/tumor cell line is described as follows. […] Afterwards, a cell suspension having a cell density of 1.0×10^4 cells/mL was prepared. […] As experimental groups, the tumor/cancer cells of each cell line were treated with the test tea samples prepared from one or more of the tea products and the comparative test samples prepared from one or more of the commercially available agents as obtained in section B of this example (for more detailed information about the tea product(s) and the commercially available product (s) used to treat each cell line, please see Table 4 below). To be specific, 6 to 10 test tea samples prepared from the same tea product and having different concentrations, as well as 6 to 10 comparative test samples prepared from the same commercially available agent and having different concentrations, were utilized to treat the tumor/cancer cells of each cell line. For each experimental group, 6 repetitions of tumor/cancer treatment were performed. For the control group, 100 μL of PBS was added to a well containing the medium and the cancer/tumor cells of the respective cell line. For the blank group, 100 μL of PBS was added to a well containing a complete medium the same as that used for cultivation of the cancer/tumor cells of the respective cell line. After the treatment described above, cultivation was conducted in an incubator (37° C., 100% relative humidity, 5% CO2) for 48 hours. Subsequently, the liquid containing the medium and the sample in the well was removed, and a respective complete medium (shown in Table 3 above) containing 10% CCK-8 (Cell Counting Kit-8)(Dojindo Molecular Technologies, Inc., Cat. No. CK04-13) was added. Cultivation was performed in an incubator (37° C.) for 2 to 4 hours, followed by gently shaking.

[3] = system: human mammary gland/duct cancer cell line BT-474; assay: In vitro antitumor/anticancer testing (CCK-8), BT-474; format: cell-based; conditions: 48 h
Experimental: as §1

Compound: O=c1[nH]cc(F)c(=O)[nH]1 [5-fluorouracil]
Body weight After treatment [1]: 72.90 g | Percent tumor growth inhibition [1]: 80.84% | Tumor weight [1]: 0.08 g

IC50 ([2]; U-87MG): IC50 (μg/mL) = 76.85 | IC50 ([3]; BT-474): IC50 (μg/mL) = 74.75
Compound: O=C(O[C@@H]1Cc2c(O)cc(O)cc2O[C@@H]1c1cc(O)c(O)c(O)c1)c1cc(O)c(O)c(O)c1 [EGCG monomer, epigallocatechin gallate]
Percent growth inhibition ([2]; 2.5 μg/mL): 2.29% | Percent growth inhibition ([2]; 5 μg/mL): 2.94% | Percent growth inhibition ([2]; 10 μg/mL): 5.82% | Percent growth inhibition ([2]; 20 μg/mL): 15.72% | Percent growth inhibition ([2]; 40 μg/mL): 15.15% | Percent growth inhibition ([2]; 80 μg/mL): 2.45% | Percent growth inhibition ([2]; 160 μg/mL): 82.81% | Percent growth inhibition ([2]; 320 μg/mL): 98.43% | Percent growth inhibition ([2]; 640 μg/mL): 98.03% | Percent growth inhibition ([3]; 2.5 μg/mL): 6.51% | Percent growth inhibition ([3]; 5 μg/mL): 2.62% | Percent growth inhibition ([3]; 10 μg/mL): −2.75% | Percent growth inhibition ([3]; 20 μg/mL): −6.45% | Percent growth inhibition ([3]; 40 μg/mL): −20.61% | Percent growth inhibition ([3]; 80 μg/mL): 57.40% | Percent growth inhibition ([3]; 160 μg/mL): 96.45% | Percent growth inhibition ([3]; 320 μg/mL): 97.46% | Percent growth inhibition ([3]; 640 μg/mL): 97.03%
